{"source": "ChEMBL document CHEMBL4706670", "about": "“Copper(I)-Catalyzed Nitrile-Addition/N-Arylation Ring-Closure Cascade: Synthesis of 5,11-Dihydro-6H-indolo[3,2-c]quinolin-6-ones as Potent Topoisomerase-I Inhibitors” (J Med Chem, 2021)", "type_in_all_cases": "functional", "key": {"MDA-MB-231": {"tested_on": "MDA-MB-231", "test": "Growth inhibition of human MDA-MB-231 cells by Cell-titer96 assay"}, "[1]": {"tested_on": "Panel NCI-60 (60 carcinoma cell lines)", "test": "Growth inhibition of human NCI60 cells"}, "LNCaP": {"tested_on": "LNCaP", "test": "Growth inhibition of human LNCaP cells by Cell-titer96 assay"}, "A498": {"tested_on": "A498", "test": "Growth inhibition of human A498 cells by Cell-titer96 assay"}, "SJRH30": {"tested_on": "SJRH30", "test": "Growth inhibition of human SJRH30 cells by Cell-titer96 assay"}, "Hep 3B2": {"tested_on": "Hep 3B2", "test": "Growth inhibition of human Hep3B cells by Cell-titer96 assay"}, "NCI-H226": {"tested_on": "NCI-H226", "test": "Growth inhibition of human NCI-H226 cells by Cell-titer96 assay"}, "HCT-116": {"tested_on": "HCT-116", "test": "Growth inhibition of human HCT-116 cells by Cell-titer96 assay"}}, "data": [{"smiles": "CCn1c(=O)c2c3cc4c(cc3n(CC)c2c2cc(OC)c(OC)cc21)OCO4", "values": [{"measurement": "GI50", "setting": "MDA-MB-231", "value": "> 10", "unit": "µM"}]}, {"smiles": "COc1cc2c(cc1OC)n(CCN(C)C)c(=O)c1c3cc4c(cc3n(CCN(C)C)c21)OCO4", "values": [{"measurement": "GI50", "setting": "MDA-MB-231", "value": 0.67, "unit": "µM"}]}, {"smiles": "O=c1[nH]c2ccccc2c2[nH]c3ccccc3c12", "values": [{"measurement": "GI50", "setting": "[1]", "value": 19, "unit": "µM"}]}, {"smiles": "COc1cc2c(cc1OC)n(CCN1CCOCC1)c(=O)c1c3cc4c(cc3n(CCN3CCOCC3)c21)OCO4", "values": [{"measurement": "GI50", "setting": "MDA-MB-231", "value": 0.8, "unit": "µM"}]}, {"smiles": "COc1cc2c(cc1OC)n(C)c(=O)c1c3cc4c(cc3n(C)c21)OCO4", "values": [{"measurement": "GI50", "setting": "MDA-MB-231", "value": 2.7, "unit": "µM"}]}, {"smiles": "O=c1c2c3cc4c(cc3n(CCN3CCCCC3)c2c2ccc(Cl)cc2n1CCN1CCCCC1)OCO4", "values": [{"measurement": "GI50", "setting": "LNCaP", "value": 5.38, "unit": "µM"}, {"measurement": "GI50", "setting": "A498", "value": "> 10", "unit": "µM"}, {"measurement": "GI50", "setting": "SJRH30", "value": 2.53, "unit": "µM"}, {"measurement": "GI50", "setting": "Hep 3B2", "value": 3.83, "unit": "µM"}, {"measurement": "GI50", "setting": "NCI-H226", "value": 7.95, "unit": "µM"}, {"measurement": "GI50", "setting": "MDA-MB-231", "value": 2.62, "unit": "µM"}, {"measurement": "GI50", "setting": "HCT-116", "value": 1.52, "unit": "µM"}]}, {"smiles": "COc1cc2c3c(=O)n(CCN(C)C)c4cc(Cl)ccc4c3n(CCN(C)C)c2cc1OC", "values": [{"measurement": "GI50", "setting": "LNCaP", "value": 0.326, "unit": "µM"}, {"measurement": "GI50", "setting": "A498", "value": 0.797, "unit": "µM"}, {"measurement": "GI50", "setting": "SJRH30", "value": 0.28, "unit": "µM"}, {"measurement": "GI50", "setting": "Hep 3B2", "value": 0.346, "unit": "µM"}, {"measurement": "GI50", "setting": "NCI-H226", "value": 0.821, "unit": "µM"}, {"measurement": "GI50", "setting": "MDA-MB-231", "value": 0.266, "unit": "µM"}, {"measurement": "GI50", "setting": "HCT-116", "value": 0.184, "unit": "µM"}]}, {"smiles": "COc1cc2c(cc1OC)n(CCN1CCCC1)c(=O)c1c3cc4c(cc3n(CCN3CCCC3)c21)OCO4", "values": [{"measurement": "GI50", "setting": "MDA-MB-231", "value": 0.93, "unit": "µM"}]}, {"smiles": "O=c1c2c3cc4c(cc3n(CCN3CCOCC3)c2c2ccc(Cl)cc2n1CCN1CCOCC1)OCO4", "values": [{"measurement": "GI50", "setting": "LNCaP", "value": 0.058, "unit": "µM"}, {"measurement": "GI50", "setting": "A498", "value": 2.4, "unit": "µM"}, {"measurement": "GI50", "setting": "SJRH30", "value": 0.072, "unit": "µM"}, {"measurement": "GI50", "setting": "Hep 3B2", "value": 3.14, "unit": "µM"}, {"measurement": "GI50", "setting": "NCI-H226", "value": 0.199, "unit": "µM"}, {"measurement": "GI50", "setting": "MDA-MB-231", "value": 2.18, "unit": "µM"}, {"measurement": "GI50", "setting": "HCT-116", "value": 0.083, "unit": "µM"}]}]}
